According to article PMC8929329, “The pharmaceutical excipient PEG400 affect the absorption of baicalein in Caco‐2 monolayer model by interacting with UDP‐glucuronosyltransferases and efflux transport proteins” (Pharmacology Research & Perspectives, 2022):

Columns and labels:
[1] = Stability study in HBSS; format: physicochemical; conditions: 37°C, 2 h
Method: The test was carried out by measuring the content of B, BG, and B6G before and after keeping in the HBSS solution at 37°C for 2 h. The time interval was selected according to the permeation experiment. The differences between the contents of the three samples before or after the incubation were calculated and expressed as the percentage of B, BG, and B6G remaining.

[2] = Permeation experiments on Caco-2 cell monolayer (two-way transport); format: in vitro ADME, human; conditions: human, Caco-2, 5 µM; for efflux ratio at 120 min, 5 µM: read-out: ER (P BL-AP)/(P AP-BL); for Papp A→B at 120 min, 5 µM: read-out: P app Absorptive (AP-BL); for Papp B→A at 120 min, 5 µM: read-out: P app Secretory (BL-AP)
Method: (§1) Cell culture was performed as previously described.[15] For transport experiments, Caco-2 cells from passage number 20-30 were seeded at a density of 2 × 10^5 cells per well on transwell plate (a solid insert for cell culture contains porous permeable polycarbonate membrane) with polycarbonate membranes using a blood-counting chamber (QIU JING®). A 0.5 ml of culture medium with cells was added to the apical side (AP) and 1.5 ml of blank culture medium was added to the basolateral side (BL). During the incubation period, the medium on the AP and BL sides were changed every 2 days in the first week, and every day after a week until the 21st day. The permeation of samples was assessed in both directions at different concentrations. This experiment assessed the influence of different concentrations (%, v/v) of PEG400 on the permeation process of B, BG, and […]. […] Caco-2 cell monolayers with qualified monolayer membrane integrity were used for drug permeability experiments. Aspirated and discarded the original culture medium in the transwell plate, added pre-warmed (37°C) HBSS to wash 3 times, put it in the incubator for the last time and incubated for 30 min. […] For the AP-BL permeability (absorptive transport study), add 0.5 ml of samples (dissolved in HBSS) to the apical side (AP) as a supply chamber, and add 1.5 ml of pre-warmed HBSS to the basolateral side (BL) as a receiving chamber. Alternatively, in the permeation direction of BL-AP compartment (secretive transport study), add 1.5 ml of samples (dissolved in HBSS) to the BL side as a supply chamber, and add 0.5 ml of pre-warmed HBSS to the AP side as a receiving chamber. After the above steps, put the transwell plate on the thermostatic oscillator (Changzhou Wanhe Instrument Manufacturing Co., Ltd.) at 60 r/min. And sample 100 μl from the receiving pool or 10 μl from the supply chamber at 30, 60, 90, and 120 min depending on the experiment, and make up the same volume of blank pre-warmed HBSS. The sample taken from the transwell plate was precipitated with the 100 μl of methanol to precipitate the protein. After centrifugation at 16 000g for 15 min at 4°C, 70 μl of the supernatant was taken. And the content was determined by UPLC-MS/MS method to calculate the apparent permeability coefficient (P app) and efflux ratio (ER). The P app and ER of Caco-2 monolayers was measured and calculated as Equations ((2), (3), (4)): (2) Papp=dQ/dt/AC0 Where ΔQ/Δt (ng/ml·s) is the rate of permeability (ng/ml·s for B, BG, […]); A is for the membrane area (1.12 cm^2); C 0 (ng/ml/for B, BG, […]) is the initial concentration of the sample in the supply chamber. The apparent permeability might need to be corrected because of the effect of the marked amount of baicalein glucuronide.[17] Thus, the corrected permeability was calculated from the total rate of drug transport and the glucuronide excretion rate of bidirectional side divided by the membrane area (A) of the monolayer and the initial concentration of baicalein at the loading side (C 0): (3) Pcorrected=dQ/dt+Aex+Bex/AC0 (4) […] - BL Where P appBL-AP is the apparent permeability coefficient when the sample is added on the basolateral side; […]-BL is the apparent permeability coefficient when the sample is added on the apical side.

[3] = tested on: BCRP; assay: as above; format: in vitro ADME, human; conditions: human, Caco-2, with KO143 10 µM (BCRP inhibitor), 5 + 10 µM KO143 (BCRP inhibitor); for efflux ratio at 120 min, 5 µM: read-out: ER (P BL-AP)/(P AP-BL); for Papp A→B at 120 min, 5 µM: read-out: P app Absorptive (AP-BL); for Papp B→A at 120 min, 5 µM: read-out: P app Secretory (BL-AP)
Method: as §1

[4] = tested on: Caco-2 cell monolayer; assay: as above; format: in vitro ADME, human; conditions: for P appAL-BL / P appBL-AL: 5 μM in supply chamber; for permeation within 2 h compared with the control group: AL-BL experiment, baicalein 10 μM loaded with 0.5% (v/v) PEG400; for penetration within 2 h compared with the control group: BL-AP experiment, baicalein 10 μM loaded with 0.5% (v/v) PEG
Method: as §1

[5] = tested on: MRP2; assay: as above; format: in vitro ADME, human; conditions: human, Caco-2, with MK-571 10 µM, 5 + 10 µM MK571 (MRP inhibitor); for efflux ratio at 120 min, 5 µM: read-out: ER (P BL-AP)/(P AP-BL); for Papp A→B at 120 min, 5 µM: read-out: P app Absorptive (AP-BL); for Papp B→A at 120 min, 5 µM: read-out: P app Secretory (BL-AP)
Method: as §1

[6] = tested on: P-gp; assay: as above; format: in vitro ADME, human; conditions: human, Caco-2, with verapamil 10 µM, 5 + 10 µM Ver (P-GP inhibitor); for efflux ratio at 120 min, 5 µM: read-out: ER (P BL-AP)/(P AP-BL)
Method: as §1

[7] = set-up: method as in doi:10.2174/1573412916666200206141439; conditions: effect of PEG400; cited from earlier work

Row | Compound | Stability (percentage remaining) ([1]; 150 ng ml^−1) [%] | Stability (percentage remaining) ([1]; 300 ng ml^−1) [%] | Stability (percentage remaining) ([1]; 600 ng ml^−1) [%] | efflux ratio at 120 min, 5 µM [2] | Papp A→B at 120 min, 5 µM [2] [×10⁻⁶ cm/s] | Papp B→A at 120 min, 5 µM [2] [×10⁻⁶ cm/s] | efflux ratio at 120 min, 5 µM [3] | Papp A→B at 120 min, 5 µM [3] [×10⁻⁶ cm/s] | Papp B→A at 120 min, 5 µM [3] [×10⁻⁶ cm/s] | ER (P BL-AP)/(P AP-BL) ([4]; 5 µM + 0.25%PEG400) | P app Absorptive (AP-BL) ([4]; 5 µM + 0.25%PEG400) | P app Secretory (BL-AP) ([4]; 5 µM + 0.25%PEG400) | ER (P BL-AP)/(P AP-BL) ([4]; 5 µM + 0.5%PEG400) | P app Absorptive (AP-BL) ([4]; 5 µM + 0.5%PEG400) | P app Secretory (BL-AP) ([4]; 5 µM + 0.5%PEG400) | ER (P BL-AP)/(P AP-BL) ([4]; 5 µM + 1%PEG400) | P app Absorptive (AP-BL) ([4]; 5 µM + 1%PEG400) | P app Secretory (BL-AP) ([4]; 5 µM + 1%PEG400) | P appAL-BL [4] [×10⁻⁶ cm/s] | P appBL-AL [4] [×10⁻⁶ cm/s] | further results
1 | O=C(O)[C@H]1O[C@@H](Oc2c(O)cc3oc(-c4ccccc4)cc(=O)c3c2O)[C@H](O)[C@@H](O)[C@@H]1O [B6G, baicalein‐6‐O‐β‐D‐glucuronide] | 98.71 ± 6.52 | 99.36 ± 6.23 | 94.32 ± 5.33 | 1.1 | 6.38 ± 0.26 | 6.35 ± 0.55 | 0.71 | 6.68 ± 0.06 | 4.77 ± 0.09 | 0.93 | 6.74 ± 0.22 1 × 10^−6 cm·s^−1 | 6.3 ± 0.98 1 × 10^−6 cm·s^−1 | 0.71 | 6.15 ± 0.17 ^* 1 × 10^−6 cm·s^−1 | 4.39 ± 0.31 ^* 1 × 10^−6 cm·s^−1 | 0.56 | 7.53 ± 0.48 ^* 1 × 10^−6 cm·s^−1 | 4.24 ± 0.25 ^** 1 × 10^−6 cm·s^−1 | 6.38 ± 0.26 | 6.35 ± 0.55 | ER (P BL-AP)/(P AP-BL) ([4]; 5 µM): 1.01; P app Absorptive (AP-BL) ([4]; 5 + 10 µM Ver (P-GP inhibitor)): 6.37 ± 0.15 1 × 10^−6 cm·s^−1; P app Secretory (BL-AP) ([4]; 5 + 10 µM Ver (P-GP inhibitor)): 6.26 ± 0.2 1 × 10^−6 cm·s^−1; permeation within 2 h compared with the control group [4]: significantly increased; penetration within 2 h compared with the control group [4]: did not show a significant difference; efflux ratio at 120 min, 5 µM [5]: 0.65; Papp A→B at 120 min, 5 µM [5]: 6.91 ± 0.23 ×10⁻⁶ cm/s; Papp B→A at 120 min, 5 µM [5]: 4.56 ± 0.21 ×10⁻⁶ cm/s; efflux ratio at 120 min, 5 µM [6]: 0.98; AUC0-t in plasma [7]: significantly increased; C max in plasma [7]: significantly increased
2 | O=C(O)[C@H]1O[C@@H](Oc2cc3oc(-c4ccccc4)cc(=O)c3c(O)c2O)[C@H](O)[C@@H](O)[C@@H]1O [BG, baicalein‐7‐O‐β‐D‐glucuronide] | 93.35 ± 8.25 | 99.20 ± 2.56 | 100.61 ± 4.92 | 1.57 | 6.52 ± 0.28 | 10.2 ± 0.37 | 0.62 | 10.9 ± 0.4 | 7.31 ± 0.9 | 1.03 | 9.91 ± 0.21 ^** 1 × 10^−6 cm·s^−1 | 10.24 ± 0.95 1 × 10^−6 cm·s^−1 | 0.65 | 15.98 ± 0.11 ^** 1 × 10^−6 cm·s^−1 | 10.36 ± 0.05 1 × 10^−6 cm·s^−1 | 0.57 | 14.37 ± 0.99 ^** 1 × 10^−6 cm·s^−1 | 8.24 ± 0.07 ^** 1 × 10^−6 cm·s^−1 | 6.52 ± 0.28 | 10.23 ± 0.37 | permeation within 2 h compared with the control group [4]: significantly increased; penetration within 2 h compared with the control group [4]: did not show a significant difference; efflux ratio at 120 min, 5 µM [5]: 0.86; Papp A→B at 120 min, 5 µM [5]: 13.2 ± 1.22 ×10⁻⁶ cm/s; Papp B→A at 120 min, 5 µM [5]: 11.4 ± 0.56 ×10⁻⁶ cm/s; efflux ratio at 120 min, 5 µM [6]: 1.65; Papp A→B at 120 min, 5 µM ([6]; read-out: P app Absorptive (AP-BL)): 6.37 ± 0.53 ×10⁻⁶ cm/s; Papp B→A at 120 min, 5 µM ([6]; read-out: P app Secretory (BL-AP)): 10.5 ± 0.14 ×10⁻⁶ cm/s; AUC0-t in plasma [7]: significantly increased; C max in plasma [7]: significantly increased
